Measurements published in US20090018111A1, “Novel Antimicrobial Medicament” (priority 2004, published 2009).
Like-named read-outs stand apart in the source and are kept apart here.

Key:
Assay in all cases: Sensitivity test (agar dilution), clinical isolate
[1] = tested on: Acinetobacter spp. 1398-2; type: cell-based, Acinetobacter calcoaceticus and Acinetobacter lwoffi
Procedure: (§1) In addition, the antibacterial activities were tested against strains which are comparatively less sensitive to β-lactam compounds, namely clinically isolated 13 strains of Acinetobacter calcoaceticus and Acinetobacter lwoffi, clinically isolated 11 strains of Serratia marcescens, clinically isolated 12 strains of Burkholderia cepacia, and clinically isolated 15 strains of Pseudomonas aeruginosa.
(§2) According to the standard method of Japan Chemotherapeutic Society (Chemotherapy, vol. […], p 76-79 (1981)) the test was carried out using the agar dilution method. After dissolving test samples in distilled water, agar medium containing the test samples was prepared in such a manner that the final concentration became twice serial dilution by pouring serially diluted combination drug solution or a single drug solution into agar medium. As agar medium was used Mueller Hinton Agar medium (MHA). Then, each strain was cultivated over night at 37° C. in an incubator and suspended in buffered saline solution with gelatin (BSG) in the concentration of about 10^6 CFU/ml. The suspension (about 5 μl) containing test strains was inoculated to the medium containing the test samples by Micro Planter.
(§3) Each drug was weighed, and dissolved in distilled water to give a test sample. When the drugs are used in combination, two kinds of solution containing each drug were mixed so as to be various ratio of concentration to give a mixed solution. When the sample is subjected to sensitivity test, this mixed solution was diluted by twice serial dilution method.
(§4) Furthermore, when the drug is solely used, each test sample was used as it is, and diluted by twice serial dilution method from the maximum concentration to the minimum concentration.

[2] = tested on: Acinetobacter spp. 227-1; type: cell-based, Acinetobacter calcoaceticus and Acinetobacter lwoffi
Procedure: as §1, §2, §3, §4

[3] = tested on: Acinetobacter spp. Jan-99 (second line, r15); type: cell-based, Acinetobacter calcoaceticus and Acinetobacter lwoffi; conditions: read-out: MIC
Procedure: as §1, §2, §3, §4

[4] = tested on: P. aeruginosa 13221; type: cell-based, Pseudomonas aeruginosa; conditions: read-out: MIC
Procedure: as §1, §2, §3, §4

[5] = tested on: P. aeruginosa 13224; type: cell-based, Pseudomonas aeruginosa
Procedure: as §1, §2, §3, §4

[6] = tested on: P. aeruginosa 13245; type: cell-based, Pseudomonas aeruginosa
Procedure: as §1, §2, §3, §4

[7] = tested on: P. aeruginosa 13250; type: cell-based, Pseudomonas aeruginosa
Procedure: as §1, §2, §3, §4

[8] = tested on: P. aeruginosa 13269; type: cell-based, Pseudomonas aeruginosa
Procedure: as §1, §2, §3, §4

[9] = tested on: P. aeruginosa 13272; type: cell-based, Pseudomonas aeruginosa
Procedure: as §1, §2, §3, §4

[10] = tested on: P. aeruginosa 13280; type: cell-based, Pseudomonas aeruginosa
Procedure: as §1, §2, §3, §4

[11] = tested on: P. aeruginosa 13285; type: cell-based, Pseudomonas aeruginosa
Procedure: as §1, §2, §3, §4

[12] = tested on: P. aeruginosa 15019; type: cell-based, Pseudomonas aeruginosa
Procedure: as §1, §2, §3, §4

[13] = tested on: P. aeruginosa 15032; type: cell-based, Pseudomonas aeruginosa
Procedure: as §1, §2, §3, §4

[14] = tested on: P. aeruginosa 15036; type: cell-based, Pseudomonas aeruginosa
Procedure: as §1, §2, §3, §4

[15] = tested on: P. aeruginosa 15039; type: cell-based, Pseudomonas aeruginosa
Procedure: as §1, §2, §3, §4

Molecule C[C@H]1C=C(c2csc(SC3=C(C(=O)O)N4C(=O)[C@H]([C@@H](C)O)[C@H]4[C@H]3C)n2)CN1 [SM, (4R,5S,6S)-6-[(1R)-1-Hydroxyethyl]-4-methyl-3-({4-[(5S)-5-methyl-2,5-dihydro-1H-pyrrol-3-yl]-1,3-thiazol-2-yl}sulfanyl)-7-oxo-1-azabicyclo[3.2.0]hept-2-ene-2-carboxylic acid] has an MIC ([1]; SPP.13982, Concomitant (ME:SM = 1:1)) of 2 µg/mL, an MIC ([1]; SPP.13982, Concomitant (ME:SM = 1:2)) of 4 µg/mL and an MIC ([1]; SPP.13982, Concomitant (ME:SM = 1:4)) of 4 µg/mL. The MIC ([1]; SPP.13982, Concomitant (ME:SM = 2:1)) was 2 µg/mL, the MIC ([1]; SPP.13982, alone) was 8 µg/mL and the MIC ([2]; SPP.2271, Concomitant (ME:SM = 1:1)) was 0.5 µg/mL. The MIC ([2]; SPP.2271, Concomitant (ME:SM = 1:2)) was 1 µg/mL, the MIC ([2]; SPP.2271, Concomitant (ME:SM = 1:4)) was 1 µg/mL and the MIC ([2]; SPP.2271, Concomitant (ME:SM = 2:1)) was 0.25 µg/mL. The MIC ([2]; SPP.2271, alone) was 2 µg/mL, the MIC ([3]; Concomitant (ME:SM = 1:1)) was 0.5 µg/mL and the MIC ([3]; Concomitant (ME:SM = 1:2)) was 0.5 µg/mL. For the same molecule, the MIC ([3]; Concomitant (ME:SM = 1:4)) was 0.5 µg/mL, the MIC ([3]; Concomitant (ME:SM = 2:1)) was 0.25 µg/mL and the MIC ([3]; alone) was 2 µg/mL. The MIC ([4]; Pseudomonas aeruginosa, 13221, Concomitant (ME:SM = 1:1)) was 0.125 µg/mL, the MIC ([4]; Pseudomonas aeruginosa, 13221, Concomitant (ME:SM = 1:2)) was 0.25 µg/mL and the MIC ([4]; Pseudomonas aeruginosa, 13221, Concomitant (ME:SM = 1:4)) was 0.25 µg/mL. For the same molecule, the MIC ([4]; Pseudomonas aeruginosa, 13221, Concomitant (ME:SM = 2:1)) was 0.031 µg/mL, the MIC ([4]; Pseudomonas aeruginosa, 13221, alone) was 16 µg/mL and the MIC ([5]; Pseudomonas aeruginosa, 13224, Concomitant (ME:SM = 1:1)) was 4 µg/mL. For the same molecule, the MIC ([5]; Pseudomonas aeruginosa, 13224, Concomitant (ME:SM = 1:2)) was 4 µg/mL, the MIC ([5]; Pseudomonas aeruginosa, 13224, Concomitant (ME:SM = 1:4)) was 8 µg/mL and the MIC ([5]; Pseudomonas aeruginosa, 13224, Concomitant (ME:SM = 2:1)) was 2 µg/mL. It also gave an MIC ([5]; Pseudomonas aeruginosa, 13224, alone) of 16 µg/mL, an MIC ([6]; Pseudomonas aeruginosa, 13245, Concomitant (ME:SM = 1:1)) of 2 µg/mL and an MIC ([6]; Pseudomonas aeruginosa, 13245, Concomitant (ME:SM = 1:2)) of 2 µg/mL. For the same molecule, the MIC ([6]; Pseudomonas aeruginosa, 13245, Concomitant (ME:SM = 1:4)) was 8 µg/mL, the MIC ([6]; Pseudomonas aeruginosa, 13245, Concomitant (ME:SM = 2:1)) was 1 µg/mL and the MIC ([6]; Pseudomonas aeruginosa, 13245, alone) was 16 µg/mL. It also gave an MIC ([7]; Pseudomonas aeruginosa, 13250, Concomitant (ME:SM = 1:1)) of 0.5 µg/mL, an MIC ([7]; Pseudomonas aeruginosa, 13250, Concomitant (ME:SM = 1:2)) of 0.5 µg/mL and an MIC ([7]; Pseudomonas aeruginosa, 13250, Concomitant (ME:SM = 1:4)) of 2 µg/mL. The MIC ([7]; Pseudomonas aeruginosa, 13250, Concomitant (ME:SM = 2:1)) was 0.25 µg/mL, the MIC ([7]; Pseudomonas aeruginosa, 13250, alone) was 8 µg/mL and the MIC ([8]; Pseudomonas aeruginosa, 13269, Concomitant (ME:SM = 1:1)) was 4 µg/mL. It also gave an MIC ([8]; Pseudomonas aeruginosa, 13269, Concomitant (ME:SM = 1:2)) of 4 µg/mL, an MIC ([8]; Pseudomonas aeruginosa, 13269, Concomitant (ME:SM = 1:4)) of 8 µg/mL and an MIC ([8]; Pseudomonas aeruginosa, 13269, Concomitant (ME:SM = 2:1)) of 2 µg/mL. The MIC ([8]; Pseudomonas aeruginosa, 13269, alone) was 16 µg/mL, the MIC ([9]; Pseudomonas aeruginosa, 13272, Concomitant (ME:SM = 1:1)) was 4 µg/mL and the MIC ([9]; Pseudomonas aeruginosa, 13272, Concomitant (ME:SM = 1:2)) was 4 µg/mL. It also gave an MIC ([9]; Pseudomonas aeruginosa, 13272, Concomitant (ME:SM = 1:4)) of 8 µg/mL, an MIC ([9]; Pseudomonas aeruginosa, 13272, Concomitant (ME:SM = 2:1)) of 2 µg/mL and an MIC ([9]; Pseudomonas aeruginosa, 13272, alone) of 16 µg/mL. It also gave an MIC ([10]; Pseudomonas aeruginosa, 13280, Concomitant (ME:SM = 1:1)) of 4 µg/mL, an MIC ([10]; Pseudomonas aeruginosa, 13280, Concomitant (ME:SM = 1:2)) of 8 µg/mL and an MIC ([10]; Pseudomonas aeruginosa, 13280, Concomitant (ME:SM = 1:4)) of 16 µg/mL. The MIC ([10]; Pseudomonas aeruginosa, 13280, Concomitant (ME:SM = 2:1)) was 4 µg/mL, the MIC ([10]; Pseudomonas aeruginosa, 13280, alone) was 32 µg/mL and the MIC ([11]; Pseudomonas aeruginosa, 13285, Concomitant (ME:SM = 1:1)) was 4 µg/mL. For the same molecule, the MIC ([11]; Pseudomonas aeruginosa, 13285, Concomitant (ME:SM = 1:2)) was 8 µg/mL, the MIC ([11]; Pseudomonas aeruginosa, 13285, Concomitant (ME:SM = 1:4)) was 16 µg/mL and the MIC ([11]; Pseudomonas aeruginosa, 13285, Concomitant (ME:SM = 2:1)) was 2 µg/mL. It also gave an MIC ([11]; Pseudomonas aeruginosa, 13285, alone) of 32 µg/mL, an MIC ([12]; Pseudomonas aeruginosa, 15019, Concomitant (ME:SM = 1:1)) of 4 µg/mL and an MIC ([12]; Pseudomonas aeruginosa, 15019, Concomitant (ME:SM = 1:2)) of 8 µg/mL. For the same molecule, the MIC ([12]; Pseudomonas aeruginosa, 15019, Concomitant (ME:SM = 1:4)) was 8 µg/mL, the MIC ([12]; Pseudomonas aeruginosa, 15019, Concomitant (ME:SM = 2:1)) was 2 µg/mL and the MIC ([12]; Pseudomonas aeruginosa, 15019, alone) was 16 µg/mL. It also gave an MIC ([13]; Pseudomonas aeruginosa, 15032, Concomitant (ME:SM = 1:1)) of 2 µg/mL, an MIC ([13]; Pseudomonas aeruginosa, 15032, Concomitant (ME:SM = 1:2)) of 2 µg/mL and an MIC ([13]; Pseudomonas aeruginosa, 15032, Concomitant (ME:SM = 1:4)) of 8 µg/mL. The MIC ([13]; Pseudomonas aeruginosa, 15032, Concomitant (ME:SM = 2:1)) was 1 µg/mL, the MIC ([13]; Pseudomonas aeruginosa, 15032, alone) was 8 µg/mL and the MIC ([14]; Pseudomonas aeruginosa, 15036, Concomitant (ME:SM = 1:1)) was 2 µg/mL. The MIC ([14]; Pseudomonas aeruginosa, 15036, Concomitant (ME:SM = 1:2)) was 2 µg/mL, the MIC ([14]; Pseudomonas aeruginosa, 15036, Concomitant (ME:SM = 1:4)) was 8 µg/mL and the MIC ([14]; Pseudomonas aeruginosa, 15036, Concomitant (ME:SM = 2:1)) was 1 µg/mL. For the same molecule, the MIC ([14]; Pseudomonas aeruginosa, 15036, alone) was 8 µg/mL, the MIC ([15]; Pseudomonas aeruginosa, 15039, Concomitant (ME:SM = 1:1)) was 8 µg/mL and the MIC ([15]; Pseudomonas aeruginosa, 15039, Concomitant (ME:SM = 1:2)) was 16 µg/mL. The MIC ([15]; Pseudomonas aeruginosa, 15039, Concomitant (ME:SM = 1:4)) was 16 µg/mL, the MIC ([15]; Pseudomonas aeruginosa, 15039, Concomitant (ME:SM = 2:1)) was 4 µg/mL and the MIC ([15]; Pseudomonas aeruginosa, 15039, alone) was 32 µg/mL.
